For the test, the target named is D(2) dopamine receptor (Rattus norvegicus, UniProt P61169).

Each structure is given as a SMILES string.

Data on 3 molecules can be found in BindingDB's records for doi:10.1002/1098-2396(20001215)38:4 (University of North Texas, 2000).

D(2) dopamine receptor, sequence (P61169 whole entry): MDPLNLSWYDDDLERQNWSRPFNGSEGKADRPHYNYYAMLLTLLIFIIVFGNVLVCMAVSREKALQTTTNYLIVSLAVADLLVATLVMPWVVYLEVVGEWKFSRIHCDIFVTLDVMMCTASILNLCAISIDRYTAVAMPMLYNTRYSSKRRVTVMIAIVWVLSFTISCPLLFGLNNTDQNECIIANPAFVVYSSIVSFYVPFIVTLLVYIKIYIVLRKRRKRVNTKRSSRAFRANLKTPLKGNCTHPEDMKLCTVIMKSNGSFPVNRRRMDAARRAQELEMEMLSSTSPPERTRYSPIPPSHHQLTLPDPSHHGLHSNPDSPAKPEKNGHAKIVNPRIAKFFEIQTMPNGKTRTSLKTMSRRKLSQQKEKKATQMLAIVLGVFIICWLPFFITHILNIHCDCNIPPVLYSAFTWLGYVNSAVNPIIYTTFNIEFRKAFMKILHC

A word on the Ki: it is a measure of affinity in units of concentration, obtained from inhibition or displacement. As to `O=C(c1ccc(F)cc1)C1CCN(CCn2c(=O)[nH]c3ccccc3c2=O)CC1` [3-(2-{4-[(4-fluorophenyl)carbonyl]piperidin-1-yl}ethyl)-1,2,3,4-tetrahydroquinazoline-2,4-dione], the affinity, expressed as Ki, was 2.71 µM.

As to `CC(C)NCC(O)COc1cccc2[nH]ccc12` (stereo not drawn) [LB-46], the Ki is greater than 10 µM.

`Cc1ccc(N(CC2=NCCN2)c2cccc(O)c2)cc1` [SMR000059054] yielded a Ki of 1.77 µM.
